From ChEMBL document CHEMBL1201862, “PubChem BioAssay data set” (2004)
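In this assay, cells in 96-well plates receive the compound at five concentrations for 48 hours. Endpoints are linearly interpolated between the surrounding concentrations. GI50 marks 50% less growth.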 Activity calls are given as the source filed them. Rule as the data show it: active = GI50 up to about 1.1 µM and inactive = higher.

Tests used:
Test in all cases: inhibition of tumour cell growth, NCI panel, 48 h
[1] = test system: CAKI-1
[2] = test system: SF-268
[3] = test system: SF-539
[4] = test system: OVCAR-3
[5] = test system: KM12
[6] = test system: UO-31
[7] = test system: SN12C
[8] = test system: SNB-75
[9] = test system: HCC 2998
[10] = test system: 786-0
[11] = test system: SF-295
[12] = test system: IGROV-1
[13] = test system: HCT-116
[14] = test system: LOX IMVI
[15] = test system: HOP-92

Measured: GI50

O=c1cc(O)cc2n1CCC2
inactive: [1] > 100 µM | [2] > 100 µM | [3] > 100 µM | [4] > 100 µM | [5] > 100 µM | [6] > 100 µM | [7] > 100 µM | [8] > 100 µM | [9] > 100 µM | [10] > 100 µM | [11] > 100 µM | [12] > 100 µM | [13] > 100 µM | [14] > 100 µM

COc1ccc(/C(=N\NC(=O)C(=O)NN)C(c2ccc(OC)cc2)C2(O)C(=O)Nc3ccccc32)cc1 (stereo not given)
inactive: [1] > 100 µM | [2] 55.2 µM | [3] 80.7 µM | [4] > 100 µM | [5] > 100 µM | [6] 27.6 µM | [7] 57.8 µM | [8] > 100 µM | [10] 28.1 µM | [15] 97.1 µM | [12] > 100 µM | [13] > 100 µM

O=C1C2C3CC4C5C3C1C5C1(SCCS1)C42 (stereo not given)
inactive: [1] > 100 µM | [2] > 100 µM | [3] > 100 µM | [5] > 100 µM | [6] > 100 µM | [7] > 100 µM | [8] > 100 µM | [9] > 100 µM | [10] > 100 µM | [12] > 100 µM | [13] > 100 µM

Cc1ccccc1C(=O)Oc1ccc(O)cc1
inactive: [1] > 100 µM | [2] > 100 µM | [3] > 100 µM | [4] > 100 µM | [5] > 100 µM | [6] > 100 µM | [7] > 100 µM | [8] > 100 µM | [9] > 100 µM | [10] > 100 µM | [11] > 100 µM | [12] > 100 µM | [13] > 100 µM

CCOC(=O)C(=O)Nc1cccc(Cl)c1C
inactive: [1] > 100 µM | [2] > 100 µM | [3] > 100 µM | [4] > 100 µM | [5] > 100 µM | [6] > 100 µM | [7] > 100 µM | [9] > 100 µM | [10] > 100 µM | [11] > 100 µM | [15] > 100 µM | [12] > 100 µM | [13] > 100 µM | [14] > 100 µM

N#CCCN(c1ccc(C=O)cc1)S(=O)(=O)c1ccccc1
inactive: [1] > 100 µM | [2] > 100 µM | [3] > 100 µM | [4] > 100 µM | [5] > 100 µM | [6] > 100 µM | [7] > 100 µM | [8] 61.9 µM | [9] > 100 µM | [10] > 100 µM | [11] > 100 µM | [12] > 100 µM | [13] > 100 µM | [14] > 100 µM

Cn1c(=O)nc2n(-c3ccc(Cl)cc3)c3ccc(Cl)cc3nc-2c1=O
inactive: [1] 4.45 µM | [2] 6.78 µM | [4] 2.57 µM | [5] 14.5 µM | [6] 18 µM | [7] 13.1 µM | [8] 1.46 µM | [9] 7.76 µM | [10] 12.2 µM | [11] 4.88 µM | [15] 7.05 µM | [12] 19.5 µM | [13] 8.55 µM | [14] 3.14 µM

CCN(CC)CCn1c2c3ccccc3ccc2c2oc(=O)c3ccccc3c21
inactive: [1] > 100 µM | [2] 82.2 µM | [3] 22.6 µM | [4] > 100 µM | [5] > 100 µM | [6] > 100 µM | [8] 15.9 µM | [10] 22.9 µM | [11] 56.2 µM | [15] 83.6 µM | [12] 68.1 µM | [13] 88.5 µM | [14] > 100 µM

CCOC(=O)C(C(=O)c1ccccc1)=C1NCCN1
inactive: [1] > 100 µM | [2] > 100 µM | [3] > 100 µM | [4] > 100 µM | [5] > 100 µM | [6] > 100 µM | [7] > 100 µM | [9] > 100 µM | [10] > 100 µM | [11] > 100 µM | [12] > 100 µM | [13] > 100 µM | [14] > 100 µM

O=C(N/N=C/c1cccc(O)c1O)N/N=C/c1cccc(O)c1O
inactive: [2] 5.93 µM | [3] 4.92 µM | [4] 2.51 µM | [5] 26.5 µM | [6] 6.52 µM | [7] 21.8 µM | [8] 8.77 µM | [10] 15.1 µM | [11] 17.9 µM | [15] 17.4 µM | [12] 48.1 µM | [13] 5.02 µM | [14] 18.7 µM

COc1ccc(C2Cc3cc(OC)c(OC)c(OC)c3C2=O)cc1 (stereo not given)
inactive: [1] > 100 µM | [2] > 100 µM | [3] > 100 µM | [4] > 100 µM | [5] > 100 µM | [6] 41.8 µM | [7] > 100 µM | [8] 47.3 µM | [9] > 100 µM | [10] > 100 µM | [11] > 100 µM | [12] > 100 µM | [13] > 100 µM | [14] > 100 µM
